Experimental data from patent US4797479A, “Nucleoside-phospholipid conjugate” (Toyo Jozo Kabushiki Kaisha, priority 1985, dated 1989).

How the values were obtained:
[1] = system: P-388 leukemic cells; assay: Antitumor activity against mouse P-388 leukemia (increase in life span, survivors); format: in vivo, mouse (BDF1 mice); details: for ILS at 30 mg/kg / ILS at 15 mg/kg: P388; for 35 days survivals No./treated / ILS (increase in life span): P-388; for ILS (increase in life span): Table 1, 35 days, control 7.57-7.79 days
[2] = system: mice; assay: Acute toxicity / mortality in mice; format: in vivo; details: for mortality: 150 mg/kg body weight in mice
[3] = system: Ehrlich ascites carcinoma cells; assay: Antitumor activity against Ehrlich ascites carcinoma (increase in life span, survivors); format: in vivo, mouse (ICR mice); details: for 35 days survivals No./treated / ILS (increase in life span): Ehrlich; for ILS (increase in life span): Table 1, 35 days, control 15.14-15.43 days
Method: Antitumor activities against mouse leukemia P-388 carcinoma and Ehrlich ascites carcinoma are shown in the ensuing examples, according to the following list of specifications:
2. Animals: BDF1 mice or ICR mice, aged 5-6 weeks, male, 5 mice in a group and 7 control mice.
3. Tumor cells: P-388 leukemic cells; 1×10^6 /0.2 ml are inoculated intraperitoneally in BDF1 mice. Ehrlich ascites carcinoma cells; 2×10^6 /0.2 ml are inoculated intraperitoneally in ICR mice.
4. Preparation of samples and administration of drugs: Samples are suspended in Tris-HCl saline solution by sonication. 0.1 ml/10 g body weight is administered. Samples are stored at 4° C. in the dark.
Administration: starting two days after inoculation of tumor, once a day for 2-7 days.
5. Increase in life span (ILS) is calculated by the following equation: [formula] Experimental days: 35 days (partially 30 days) mice living in final days are not calculated in ILS.
Antitumor activity of this compound has been shown hereinbefore. Furthermore, over 60% ILS was observed when Ehrlich ascites carcinoma, 2×10^6 cells/0.2 ml was inoculated intraperitoneally in mice and 2 days thereafter this compound (30 mg/kg) was administered once a day for 7 days.

[4] = Antiviral activity (statement, no method given); details: statement in words; virus and dose not stated
[5] = Mus musculus, Table 5, P-388 leukemia treatment, 30 mg (× 5) under head mg/kg

Q: Which ILS at 30 mg/kg [1, 5] does the source give for `CCCCCCCCCCCCCCCCCC(=O)OC[C@H](COP(=O)(O)OC[C@H]1O[C@@H](n2cc(F)c(N)nc2=O)[C@@H](O)[C@@H]1O)OC(=O)CCCCCCCCCCCCCCCCC` [Example 18] here?
A: 194%

Q: For `CCCCCCCCCCCCCCCCCC(=O)OC[C@H](COP(=O)(O)OC[C@H]1O[C@@H](n2cc(F)c(=O)[nH]c2=O)C[C@@H]1O)OC(=O)CCCCCCCCCCCCCCCCC` [Example 20], which ILS at 30 mg/kg [1, 5] is on record?
A: 36%

Q: Which ILS at 30 mg/kg [1, 5] does the source give for `CCCCCCCCCCCCCCCCCC(=O)OC[C@H](COP(=O)(O)OCC1=C[C@@H](n2cnc3c(N)ncnc32)[C@H](O)[C@@H]1O)OC(=O)CCCCCCCCCCCCCCCCC` [Example 17] here?
A: 128%

Q: For `CCCCCCCCCCCCCCCCCC(=O)OC[C@H](COP(=O)(O)OC[C@H]1O[C@@H](n2ccc(N)nc2=O)[C@@H](O)[C@@H]1O)OC(=O)CCCCCCCCCCCCCCCCC` [Example 19], which ILS at 30 mg/kg [1, 5] is on record?
A: 160%

Q: Which results are given for `CCCCCCCCCCCCCCCC(=O)OC[C@H](COP(=O)(O)OC[C@H]1O[C@@H](n2cc(F)c(N)nc2=O)[C@@H](O)[C@@H]1O)OC(=O)CCCCCCCCCCCCCCC` [Example 13]?
A: acute toxicity ([2]; 150 mg/kg body weight, mice): No acute toxicity; ILS ([3]; Ehrlich ascites carcinoma 2×10^6 cells i.p., 30 mg/kg once a day for 7 days from 2 days after inoculation): over 60%; ILS at 15 mg/kg ([1]; Mus musculus, Table 2, P-388 leukemia, 15 mg/kg (× 5), control 7.57-7.64 days): 152%

Q: For `CCCCCCCCCCCCCCCC(=O)OC[C@H](COP(=O)(O)OCC1=C[C@@H](n2cnc3c(N)ncnc32)[C@H](O)[C@@H]1O)OC(=O)CCCCCCCCCCCCCCC` [Example 2], which acute toxicity ([2]; 250 mg/kg body weight) is on record?
A: No acute toxicity was observed

Q: And the “35 days survivals No./treated” value ([3]; 10 mg/kg (× 7))?
A: 2/5

Q: And the “ILS (increase in life span)” value ([3]; 10 mg/kg (× 7))?
A: > 68.7%

Q: What about the “35 days survivals No./treated” value ([1]; 50 mg/kg (× 3)) of the same compound?
A: 1/5

Q: And the “ILS (increase in life span)” value ([1]; 50 mg/kg (× 3))?
A: > 159.3%

Q: With `CCCCCCCCCCCCCCCCCC(=O)OC[C@H](COP(=O)(O)OC[C@H]1O[C@@H](n2cc(F)c(=O)[nH]c2=O)[C@H](O)[C@@H]1O)OC(=O)CCCCCCCCCCCCCCCCC` [Example 16] as the compound, how does the ILS at 30 mg/kg [1, 5] read?
A: 206%

Q: For `CCCCCCCCCCCCCCCC(=O)OC[C@H](COP(=O)(O)OC[C@H]1O[C@@H](n2cc(F)c(=O)[nH]c2=O)[C@H](O)[C@@H]1O)OC(=O)CCCCCCCCCCCCCCC` [Example 1], which acute toxicity ([2]; 150 mg/kg i.p. in mice) is on record?
A: No acute toxicity was observed

Q: And the “35 days survivals No./treated” value ([3]; 15 mg/kg (× 5))?
A: 2/5

Q: And the “ILS (increase in life span)” value ([3]; 15 mg/kg (× 5))?
A: > 88.0%

Q: And the “35 days survivals No./treated” value ([1]; 30 mg/kg (× 5))?
A: 0/5

Q: And the “ILS (increase in life span)” value ([1]; 30 mg/kg (× 5))?
A: 206.3%

Q: With `CCCCCCCCCCCCCCCC(=O)OC[C@H](COP(=O)(O)OC[C@H]1O[C@@H](n2cnc3c(N)ncnc32)[C@@H](O)[C@@H]1O)OC(=O)CCCCCCCCCCCCCCC` [dipalmitoyl phosphatidyl arabinosyladenine] as the compound, how does the mortality [2] read?
A: no mortality was observed

Q: And the antiviral activity [4]?
A: have antiviral activity

Q: Which results are given for `CCCCC/C=C\C/C=C\CCCCCCCC(=O)OC[C@H](COP(=O)(O)OC[C@H]1O[C@@H](n2cc(F)c(=O)[nH]c2=O)[C@H](O)[C@@H]1O)OC(=O)CCCCCCC/C=C\C/C=C\CCCCC` [Example 3]?
A: acute toxicity ([2]; 75 mg/kg, mice): no acute toxicity; ILS at 15 mg/kg ([1]; mouse P-388 leukemia, 15 kg/mg, 5 times administration): 101%; 35 days survivals No./treated ([1]; 15 mg/kg (× 5)): 0/5; ILS (increase in life span) ([1]; 15 mg/kg (× 5)): 100.8%

Q: Which “acute toxicity or mortality” value ([2]; 150 mg/kg body weight, mice) does the source give for `CCCCCCCC/C=C\CCCCCCCC(=O)OC[C@H](COP(=O)(O)OC[C@H]1O[C@@H](n2ccc(N)nc2=O)[C@@H](O)[C@@H]1O)OC(=O)CCCCCCC/C=C\CCCCCCCC` [Example 14] here?
A: No acute toxicity or mortality

Q: What about the ILS ([3]; mice Ehrlich ascites carcinoma, dose not stated) of the same compound?
A: 65.6%

Q: What about the ILS at 30 mg/kg ([1]; Mus musculus, Table 2, P-388 leukemia, 30 mg/kg (× 5), control 7.57-7.64 days) of the same compound?
A: 154%

Q: For `CCCCCCCCCCCCCCCC(=O)OC[C@H](COP(=O)(O)OC[C@H]1O[C@@H](n2cc(C)c(=O)[nH]c2=O)[C@@H](O)[C@@H]1O)OC(=O)CCCCCCCCCCCCCCC` [dipalmitoyl phosphatidyl arabinosylthymine], which mortality [2] is on record?
A: no mortality was observed

Q: What about the antiviral activity [4] of the same compound?
A: have antiviral activity
